{"source": "paper PMC11642486", "about": "(International Journal of Molecular Sciences, 2024)", "key": {"[1]": {"system": "neurons", "test": "RNA-sequencing of drug-treated neurons", "type": "cell-based, rat"}, "[2]": {"system": "nitric oxide (NO) production in microglia", "test": "Nitric oxide production (Griess Reagent System) in LPS-activated microglia", "type": "cell-based, murine", "conditions": "for lowest concentration inhibiting the production of NO: LPS-activated microglia", "experimental": "DMF and MMF (both from Sigma-Aldrich, Saint Louis, MO, USA) were prepared as stock solutions in dimethyl sulfoxide (DMSO); CBD (Cayman chemical, Ann Arbor, MI, USA) was prepared in ethanol (EtOH). Lipopolysaccharide (LPS) from Escherichia coli 026:B6 in an aqueous solution (Thermo Fisher Scientific) was used as proinflammatory stimuli in microglia at a final concentration of 600 ng/mL. For the LPS experiments, the concentration of fetal bovine serum in the microglia culture medium was reduced to 0.1% immediately before drug treatment. All of the compounds were titrated in their respective vehicle and diluted into the culture media for cell treatments. The final concentration of vehicle (DMSO, EtOH or H2O) was consistent for all treated cells (0.2%).\nThe concentration of nitrites was measured as an indirect indicator of nitric oxide (NO) production in microglia by using the colorimetric assay Griess Reagent System (Promega Biotech Ibérica, Madrid, Spain). Microglial cells were seeded in 96-well plates, previously treated with 0.1 mg/mL of poly-L-lysine, at a density of 50,000 cells/well. […] The concentration of NO was quantified at a wavelength of 520 nm in an absorbance reader plate. Experiments were repeated three times, each condition in triplicate."}, "[3]": {"system": "neurons", "test": "Neuronal apoptosis (TUNEL) induced by conditioned medium of LPS-activated microglia", "type": "cell-based, Wistar rats", "conditions": "neurons pre-treated 4 h, then 4 h with supernatant of LPS + drug microglia (48 h)", "experimental": "Given that physiologically, if any of the drugs enter the BBB, both the neurons and microglia will be exposed to them, we decided to study the synergistic effects (direct antioxidant properties in neurons with indirect anti-inflammatory effects in microglia) of the drugs in both cells. […] Representative confocal microscopy images of the apoptosis assay are shown in Supplementary Figure S2.\nThe apoptosis of neurons was determined using the DeadEnd™ Fluorometric TUNEL System (Promega Biotech Ibérica, Madrid, Spain) following the manufacturer’s instructions. Neurons were seeded on glass coverslips previously treated with 1 mg/mL of poly-L-lysine at a density of 500,000 cells/well. […] Then, the supernatants of 48 h LPS-treated or LPS + drug (at the same drug concentrations as in neurons) microglia cells were added to the neuronal culture and incubated for an additional 4 h. Apoptosis was determined using Leica TCS SP5 confocal microscopy and quantified using ImageJ software. For each experimental condition, five random fields were captured to count the number of positive fluorescent cells (apoptotic) divided by the total number of cells identified by the nuclear fluorescent staining TO-PRO. Each experiment was repeated three times."}, "[4]": {"system": "Nrf2", "test": "Nrf2 nuclear translocation by immunofluorescence in microglia", "type": "cell-based, murine", "conditions": "for Nrf2 activation (nuclear translocation), result in words: 4 h, any tested concentration", "experimental": "(§1) Primary hippocampal neurons were obtained from Wistar rats on embryonic day 18. Briefly, embryos were removed from the womb under sterile conditions and decapitated to dissect the brains. Hippocampi were isolated at 4 °C in Hank’s balanced salt solution (HBSS) without calcium and magnesium, supplemented with 10 mM HEPES buffered saline and 100 U/mL of penicillin-streptomycin. The hippocampi were mechanically disaggregated using fire-polished pipettes and plated for 2–4 h in neuronal plating medium composed of minimum essential medium (MEM) enriched with 0.6% D-glucose and 10% horse serum. Neuronal plating medium was replaced by neurobasal medium supplemented with 1X B-27 and 2 mM L-glutamine. Neurons were grown for 7 days prior to the experiments. For the microglial cells, we used the BV-2 immortalized murine cell line. Microglial cells were cultured in Dulbecco’s modified Eagle medium (DMEM) with 4.5 g/L D-glucose, 2 mM L-glutamine, 100 U/mL of penicillin-streptomycin, and 10% heat-inactivated fetal bovine serum. Cells were maintained at 37 °C in a humidified incubator with 5% CO2. All culture media were purchased from Thermo Fisher Scientific (Waltham, MA, USA).\nFor the immunofluorescence experiments, neurons and microglia were directly seeded on glass coverslips previously treated with 1 mg/mL of poly-L-lysine. […] After the drug treatments, the cells were fixed on ice with 4% paraformaldehyde for 25 min and then permeabilized and blocked using 0.1% Triton X-100 (10 min) and 5% BSA (30 min), respectively. Cells were then incubated overnight with the primary antibodies and 1% BSA at 4 °C. The primary antibodies anti-Nrf2 (ab1375550) and anti-NF-kB p65 (ab16502) (both from Abcam, Cambridge, United Kingdom) were used at 1:200. […] For each experimental condition, five random fields were captured and analyzed using ImageJ software (National Institutes of Health, Maryland, DC, USA). Activation of Nrf2 or NF-kB was defined as nuclear translocation, measured by the increase in the mean fluorescence intensity (MFI) in the nucleus. […]"}, "[5]": {"system": "Nrf2", "test": "Nrf2 nuclear translocation by immunofluorescence in neurons", "type": "cell-based, Wistar rats", "conditions": "for lowest concentration inducing nuclear translocation (activation) of Nrf2: significant vs vehicle", "experimental": "as §1\nFor the immunofluorescence experiments, neurons and microglia were directly seeded on glass coverslips previously treated with 1 mg/mL of poly-L-lysine. […] After the drug treatments, the cells were fixed on ice with 4% paraformaldehyde for 25 min and then permeabilized and blocked using 0.1% Triton X-100 (10 min) and 5% BSA (30 min), respectively. Cells were then incubated overnight with the primary antibodies and 1% BSA at 4 °C. The primary antibodies anti-Nrf2 (ab1375550) and anti-NF-kB p65 (ab16502) (both from Abcam, Cambridge, United Kingdom) were used at 1:200. After washing with PBS, cells were incubated with the fluorophore-conjugated secondary antibody anti-Rabbit IgG Alexa Fluor 488 (Thermo Fisher Scientific) at 1:500 for 1 h at room temperature. Cells were counterstained with the TO-PRO fluorescent dye (Thermo Fisher Scientific) to visualize the cell nuclei. Images were captured using the confocal microscope Leica TCS SP5 (Leica Microsystems, Wetzlar, Germany). For each experimental condition, five random fields were captured and analyzed using ImageJ software (National Institutes of Health, Maryland, DC, USA). Activation of Nrf2 or NF-kB was defined as nuclear translocation, measured by the increase in the mean fluorescence intensity (MFI) in the nucleus. Each experiment was repeated three times."}, "[6]": {"conditions": "4 h, 30 µM DMF, 30 µM MMF, 6 µM CBD"}, "[7]": {"conditions": "24 h, 30 µM DMF, 30 µM MMF, 6 µM CBD"}}, "note": "Where a name gives a salt, the structure may show the parent alone."}
{"molecule": "C=C(C)[C@@H]1CCC(C)=C[C@H]1c1c(O)cc(CCCCC)cc1O", "note": "[CBD, cannabidiol]", "values": [{"measurement": "number of differentially expressed genes (DEGs) vs vehicle", "setting": "[1]; [6]", "result": "four"}, {"measurement": "Hmox1 expression vs vehicle", "setting": "[1]; 24 h, 6 µM CBD", "result": 4.9, "unit": "log2FC"}, {"measurement": "number of DEGs with strong downregulation (fold change < −1)", "setting": "[1]; 24 h, 6 µM CBD", "result": "eight"}, {"measurement": "number of DEGs with strong upregulation (fold change > 1)", "setting": "[1]; 24 h, 6 µM CBD", "result": "nine"}, {"measurement": "number of downregulated DEGs vs vehicle", "setting": "[1]; 24 h, 30 µM DMF, 6 µM CBD", "result": 21}, {"measurement": "number of upregulated DEGs vs vehicle", "setting": "[1]; 24 h, 30 µM DMF, 6 µM CBD", "result": 12}, {"measurement": "number of differentially expressed genes (DEGs) vs vehicle", "setting": "[1]; [7]", "result": 33}, {"measurement": "concentration of NO in the supernatant, in words", "setting": "[2]; LPS + drug, 10 µM", "result": "almost undetectable"}, {"measurement": "concentration of NO in the supernatant", "setting": "[2]; LPS + drug, starting from 6 µM, all timepoints, LPS alone around 40 µM at 48 and 72 h", "result": "below 10 µM"}, {"measurement": "lowest concentration inhibiting the production of NO", "setting": "[2]", "result": 6, "unit": "µM"}, {"measurement": "effect on neuronal apoptosis, in words", "setting": "[3]; 7 µM", "result": "prevented neuronal apoptosis"}, {"measurement": "Nrf2 activation (nuclear translocation), result in words", "setting": "[4]", "result": "did not produce the activation of Nrf2"}, {"measurement": "Nrf2 nuclear protein levels, fold increase vs vehicle", "setting": "[5]; 4 h, 5 µM", "result": 4, "unit": "fold"}, {"measurement": "Nrf2 nuclear protein levels, fold increase vs vehicle", "setting": "[5]; 4 h, 6 µM", "result": 10, "unit": "fold"}, {"measurement": "Nrf2 nuclear protein levels, fold increase vs vehicle", "setting": "[5]; 4 h, 7 µM", "result": 10, "unit": "fold"}, {"measurement": "Nrf2 nuclear protein levels, fold increase vs vehicle", "setting": "[5]; 4 h, 8 µM", "result": 4, "unit": "fold"}, {"measurement": "Nrf2 nuclear protein levels, fold increase vs vehicle", "setting": "[5]; 4 h, 10 µM", "result": 4, "unit": "fold"}, {"measurement": "magnitude (peak) of Nrf2 activation, fold change of mean nuclear fluorescence intensity vs vehicle", "setting": "[5]; 4 h treatment", "result": 10, "unit": "fold"}, {"measurement": "lowest concentration inducing nuclear translocation (activation) of Nrf2", "setting": "[5]; 4 h treatment", "result": 5, "unit": "µM"}]}
{"molecule": "COC(=O)/C=C/C(=O)OC", "note": "[DMF, Dimethyl fumarate]", "values": [{"measurement": "number of DEGs between 24 h and 4 h of treatment (across time)", "setting": "[1]; 30 µM DMF", "result": 1276}, {"measurement": "Hmox1 expression vs vehicle", "setting": "[1]; 4 h, 30 µM DMF", "result": 3.9, "unit": "log2FC"}, {"measurement": "number of downregulated DEGs vs vehicle", "setting": "[1]; 4 h, 30 µM DMF", "result": 169}, {"measurement": "number of upregulated DEGs vs vehicle", "setting": "[1]; 4 h, 30 µM DMF", "result": 238}, {"measurement": "number of differentially expressed genes (DEGs) vs vehicle", "setting": "[1]; [6]", "result": 407}, {"measurement": "Nfe2l2 expression vs vehicle", "setting": "[1]; 24 h, 30 µM DMF", "result": 0.94, "unit": "log2Fc"}, {"measurement": "number of downregulated DEGs vs vehicle", "setting": "[1]; 24 h, 30 µM DMF, 6 µM CBD", "result": 144}, {"measurement": "number of upregulated DEGs vs vehicle", "setting": "[1]; 24 h, 30 µM DMF, 6 µM CBD", "result": 120}, {"measurement": "Nqo1 expression vs vehicle", "setting": "[1]; 24 h, 30 µM DMF, 30 µM MMF", "result": 2.3, "unit": "log2FC"}, {"measurement": "number of differentially expressed genes (DEGs) vs vehicle", "setting": "[1]; [7]", "result": 264}, {"measurement": "concentration of NO in the supernatant", "setting": "[2]; LPS + drug, 48 and 72 h, all studied concentrations from 1 µM, LPS alone around 40 µM", "result": "around 20 µM"}, {"measurement": "lowest concentration inhibiting the production of NO", "setting": "[2]", "result": "≤ 1", "unit": "µM"}, {"measurement": "effect on neuronal apoptosis, in words", "setting": "[3]; 10 µM", "result": "significantly prevented neuronal apoptosis"}, {"measurement": "effect on neuronal apoptosis, in words", "setting": "[3]; 30 µM", "result": "not at 30 µM"}, {"measurement": "lowest concentration inducing nuclear translocation (activation) of Nrf2", "setting": "[4]; 4 h treatment, significant vs vehicle", "result": 10, "unit": "µM"}, {"measurement": "lowest concentration inducing nuclear translocation (activation) of Nrf2", "setting": "[5]; 4 h treatment", "result": 30, "unit": "µM"}]}
{"molecule": "COC(=O)/C=C/C(=O)O", "note": "[MMF, monomethyl fumarate]", "values": [{"measurement": "number of differentially expressed genes (DEGs) vs vehicle", "setting": "[1]; [6]", "result": "did not produce any significant transcriptomic changes"}, {"measurement": "Nqo1 expression vs vehicle", "setting": "[1]; 24 h, 30 µM DMF, 30 µM MMF", "result": 0.98, "unit": "log2FC"}, {"measurement": "number of differentially expressed genes (DEGs) vs vehicle", "setting": "[1]; [7]", "result": "three"}, {"measurement": "Gstp1 expression vs vehicle", "setting": "[1]; 24 h, 30 µM MMF", "result": 0.66, "unit": "log2FC"}, {"measurement": "inhibition of NO production, in words", "setting": "[2]; LPS + drug, 24 h", "result": "significant NO inhibition"}, {"measurement": "inhibition of NO production vs LPS-treated cells, in words", "setting": "[2]; LPS + drug, same concentrations as DMF (from 1 µM)", "result": "halving the concentrations of NO"}, {"measurement": "effect on neuronal apoptosis, in words", "setting": "[3]; 10 µM", "result": "also prevented neuronal apoptosis"}, {"measurement": "effect on neuronal apoptosis, in words", "setting": "[3]; 30 µM", "result": "also protected neurons from apoptosis"}, {"measurement": "Nrf2 activation (nuclear translocation), result in words", "setting": "[4]", "result": "did not observe Nrf2 activation"}, {"measurement": "Nrf2 activation (nuclear translocation), result in words", "setting": "[5]; 4 h, same concentrations as DMF (up to 30 µM)", "result": "did not observe the nuclear translocation of Nrf2"}]}
